Source: US9145398B2, “Methods of treating CXCR4-expressing cancers” (University of Louisville Research Foundation, Inc., priority 2010, dated 2015)
“Also recorded” adds a separate entry of the source.

Key:
300.19 cells = assay: Cytotoxicity assay, propidium iodide based flow cytometry; format: cell-based; conditions: 50 μM test compound
Procedure: Cytotoxicity Assay Method: To determine the potential for test compound cytotoxicity to influence cell intracellular calcium mobilization and chemotaxis, cell cytotoxicity was assessed using propidium iodide (PI) based flow cytometry. Propidium iodine is impermeable to intact cell membranes and thus its lack of intercalation into DNA (which increases PI fluorescence) is a positive indicator of cell viability. Cytotoxicity values are presented as percentage of cells staining positive for PI. Lower values of fluorescence indicate less cytotoxicity. All assays were performed a minimum of four times; error bars represent the standard deviation of the mean.

CCR5 = target: T1, CCR5 (Homo sapiens, UniProt P51681); assay: RANTES-mediated chemotaxis of THP-1 cells; format: cell-based; conditions: 10 μM compound, RANTES 300 ng/ml
T1 construct: endogenous in cells; host or cells: THP-1 cells
T1 sequence (P51681 whole entry): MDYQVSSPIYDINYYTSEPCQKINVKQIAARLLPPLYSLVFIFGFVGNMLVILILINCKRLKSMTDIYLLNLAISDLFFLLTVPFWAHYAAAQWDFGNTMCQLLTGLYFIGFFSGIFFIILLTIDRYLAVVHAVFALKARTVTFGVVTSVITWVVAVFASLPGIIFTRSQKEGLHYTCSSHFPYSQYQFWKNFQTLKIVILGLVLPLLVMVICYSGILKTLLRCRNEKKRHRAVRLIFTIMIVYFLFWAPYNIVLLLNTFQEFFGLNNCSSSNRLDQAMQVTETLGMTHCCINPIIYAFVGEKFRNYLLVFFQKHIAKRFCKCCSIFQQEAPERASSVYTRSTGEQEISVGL
Procedure: (§1) Chemotaxis assays were performed with selected compounds at a concentration of 10 μM. Chemokines signaling via CXCR4 (CXCL12 at concentration of 500 ng/ml) and CCR5 (RANTES at concentration of 300 ng/ml) were utilized to assess the receptor specificity of each compound. Each pair of columns for a lane corresponds to two separate representative experiments. The negative control samples (lanes 2 and 7) correspond to the chemotaxis without CXCL12 or RANTES. The CXCL12 and RANTES lanes are positive controls corresponding to CXCL12 alone (lanes 1 and 6) or RANTES alone (lanes 4 and 9) mediated chemotaxis. The experimental samples (lanes 3, 5, 8, and 10) correspond to CXCL12- or RANTES-mediated chemotaxis when the cells are co-incubated with I-38 or I-46.

hCXCR4-GFP [1] = target: T2, hCXCR4-GFP (Homo sapiens, UniProt P61073); assay: Chemotaxis assay, hCXCR4-GFP expressing 300.19 cells, CXCL12; format: cell-based; conditions: hCXCR4-GFP 300.19 cells, CXCL12
T2 sequence (P61073 whole entry): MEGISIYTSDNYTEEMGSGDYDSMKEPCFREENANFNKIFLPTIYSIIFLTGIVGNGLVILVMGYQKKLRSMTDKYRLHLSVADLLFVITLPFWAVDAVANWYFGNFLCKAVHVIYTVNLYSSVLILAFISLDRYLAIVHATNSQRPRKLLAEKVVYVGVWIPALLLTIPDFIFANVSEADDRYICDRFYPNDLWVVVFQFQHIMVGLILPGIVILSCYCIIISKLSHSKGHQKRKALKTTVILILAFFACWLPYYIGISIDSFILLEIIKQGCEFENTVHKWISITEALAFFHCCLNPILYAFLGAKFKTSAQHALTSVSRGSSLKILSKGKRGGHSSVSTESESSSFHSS
Procedure: (§2) Cells were suspended in chemotaxis buffer (RPMI 1640, 1% fetal bovine serum, 1 mM HEPES) at a concentration of 1×10^7 cells per ml. Cell chemotaxis was determined by examining the migration of the 300.19 cells in response to administration of 50 μM test compound plus an optimized concentration of CXCL12 using a chemotaxis assay that was previously described in Basu et al. (Basu et al., Critical role for polar residues in coupling leukotriene B4 binding to signal transduction in BLT1, J. Biol. Chem. (2007) Vol. 282, pp. 10005-17). 100 μL of 300.19 cells from the above cell suspension were placed in the upper chamber of a Transwell support (Corning Costar, Cambridge, Mass.) and were separated by a 5 micron filter from a bottom chamber containing 50 μM test compound plus the optimized concentration of CXCL12 in a final bottom chamber volume of 600 μl. After 3 h of incubation at 37° C. in 5% CO2, the upper chamber was removed and cells in the lower chamber were counted in a Bürker chamber. Cell counts for all samples were normalized to a CXCL12 plus DMSO control and results are reported using this normalized measure, referred to herein as the chemotaxis index. In some instances, the IC50 concentration (i.e., the concentration at which the chemotaxis index is reduced to 50% of the chemotaxis index of the CXCL12 plus DMSO control) of the test compounds was determined. All assays were performed a minimum of four times; error bars represent the standard deviation of the mean.

[2] = Test for toxicity in mice; format: in vivo; conditions: i.p. 5 mg/kg, then 20 or 40 mg/kg two days later; observed over 3 weeks
Procedure: Test for Toxicity: Mice were treated by intra-peritoneal injections of three of compounds I-28, I-36, and I-38 at the first dose of 5 mg/kg of body weight, followed by a second injection of either 20 mg/kg of body weight or 40 mg/kg of body weight two days later.

CXCR4 = target: T3, CXCR4 (Homo sapiens, UniProt P61073); assay: CXCL12-mediated chemotaxis of THP-1 cells; format: cell-based; conditions: 10 μM compound, CXCL12 500 ng/ml
T3 construct: endogenous in cells; host or cells: THP-1 cells (ATCC TIB-202)
T3 sequence (P61073 whole entry): as above
Procedure: Data are presented as a percentage of THP-1 cells (obtainable from ATCC accession number TIB-202) migrating toward a CXCL12 gradient of 500 ng/ml, normalized to the control, which was the CXCL12 only treatment. All assays were performed a minimum of four times with inhibitor concentration of 10 μM, except for I-61 and I-62 which used an inhibitor concentration of 1 μM. Error bars represent the standard deviation of the mean.
as §1

hCXCR4-GFP [3] = target: T2, hCXCR4-GFP; assay: Intracellular calcium mobilization assay, hCXCR4-GFP expressing 300.19 cells, CXCL12; format: cell-based; set-up: IC50 of intracellular calcium mobilization, CXCR4; other: CXCL12-mediated; other: 50 μM test compound; normalized Δ fluorescence (CXCR4, intracellular calcium mobilization); other: 50 μM test compound, 60 seconds pretreatm; conditions: 50 μM test compound
Procedure: (§3) Intracellular Calcium Mobilization Assay Method: The intracellular calcium mobilization assay used 300.19 cells which stably expressed hCXCR4-GFP, as described previously in Pello et al. (2008). Cells were loaded with INDO-I and then pretreated with the 50 μM of the test compound for 60 seconds prior to stimulation of intracellular calcium mobilization with an optimized concentration of CXCL12. […] The value Δ florescence is the difference between (a) the fluorescence ratio from cells before exposure to CXCL12 at its optimized concentration and (b) the fluorescence ratio from cells following stimulation with the optimized concentration of CXCL12. Decreases in Δ florescence correspond to decreases in intracellular calcium mobilization, and therefore, decreased signaling. As CXCL12 concentration was optimized for each test compound, results are presented as normalized Δ florescence which is Δ fluorescence divided by the fluorescence ratio of optimized CXCL12-only stimulation. In some instances, the IC50 concentration (concentration at which intracellular calcium mobilization is reduced to 50% of the Δ fluorescence of the CXCL12 plus DMSO control) of the test compounds was determined. All assays were performed a minimum of four times; error bars represent the standard deviation of the mean.

TC-1 tumor cells = format: in vivo; conditions: 5 mg/kg i.p. every day for 21 days
Description: Development of Animal Model for CXCR4 Dependent Cancer Metastasis in Lungs: To establish a CXCR4 dependent lung tumor metastasis model, we first screened several cancer cell lines that are known to metastasize to lungs in mice models to determine which cancer cell lines endogenously express CXCR4 receptor. The mice cell lines screened were Lewis lung carcinoma, B16F10 melanoma, and TC-1 cervical carcinoma. Mice cell lines were screened using flow cytometry-based surface receptor staining using a fluorochrome labeled antibody to mouse CXCR4 receptor. […] The TC-1 cell line was generated by transfection of murine lung squamous epithelial cells by Human pappillomavirus (HPV) oncogenes E6, E7, and activated Ras.
5 mg/kg body weight of AMD3100, I-28, I-36, or I-38 were also injected at the same dose intra-peritoneal (i.p.) every day for 21 days starting from the day before the tumor cell injection. Mice were sacrificed and lungs were perfused and collected on day 21 post tumor challenge. Lungs were stored in formalin for 16 hrs and then transferred into 70% ethanol until the lung lobes became lucid. All five lung lobes were separated. Tumors were counted using a magnifying glass or a microscope. Tumor sizes were measured using a digital caliper. The total number of tumors counted in all five lung lobes of an individual mouse is reported as the tumor incidence. Mean tumor sizes were added together to calculate cumulative tumor size, which is reported as the tumor burden for each mouse.

BLT1 [4] = target: T4, BLT1 (Homo sapiens, UniProt Q15722); assay: Chemotaxis assay, cells expressing BLT1, LTB4; format: cell-based; conditions: 50 μM test compound, LTB4-induced
T4 sequence (Q15722 whole entry, species assumed): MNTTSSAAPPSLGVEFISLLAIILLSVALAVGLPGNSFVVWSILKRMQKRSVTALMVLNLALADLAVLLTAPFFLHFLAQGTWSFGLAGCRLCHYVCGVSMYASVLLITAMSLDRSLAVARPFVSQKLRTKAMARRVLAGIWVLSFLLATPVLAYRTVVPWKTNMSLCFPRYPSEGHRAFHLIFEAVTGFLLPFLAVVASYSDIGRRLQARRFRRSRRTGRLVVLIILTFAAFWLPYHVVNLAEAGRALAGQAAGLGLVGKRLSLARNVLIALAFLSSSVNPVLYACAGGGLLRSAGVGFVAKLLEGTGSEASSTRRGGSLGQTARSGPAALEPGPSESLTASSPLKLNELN
Procedure: as §2
To examine specificity of some of the compounds for CXCR4, their activity was tested against a non-family member class A G protein-coupled receptor, BLT1. […] I-38 and I-43 inhibited BLT1-mediated chemotaxis (0.23) and (0.045) to about the same extent as CXCR4-mediated chemotaxis (0.21) and (0.064), respectively.

BLT1 [5] = target: T4, BLT1; assay: Intracellular calcium mobilization assay, cells expressing BLT1, LTB4; format: cell-based; conditions: 50 μM test compound, LTB4
Procedure: as §3
At 50 μM test compound concentrations in BLT1-expressing cells, I-44 (0.040) and I-46 (0.017) inhibited intracellular calcium mobilization.

| Structure (SMILES) | cytotoxicity, percentage of cells staining positive for PI (300.19 cells) [%] | inhibition of RANTES-mediated migration of THP-1 cells (CCR5) | IC50 (hCXCR4-GFP [1]) [µM] | apparent toxicity (loss of body weight, signs of physiological distress) [2] | inhibition of CXCL12-mediated migration of THP-1 cells (CXCR4) | inhibition of intracellular calcium mobilization (in words) (hCXCR4-GFP [3]) | efficacy compared with AMD3100 (TC-1 tumor cells) | reduction of average tumor burden (TC-1 tumor cells) | TC-1 metastatic tumor incidence and burden in lungs (TC-1 tumor cells; versus PBS or Vehicle controls) | chemotaxis index (BLT1-mediated) (BLT1 [4]) | normalized Δ fluorescence (BLT1, intracellular calcium mobilization) (BLT1 [5]) | normalized Δ fluorescence (CXCR4, intracellular calcium mobilization) (hCXCR4-GFP [3]; 60 seconds pretreatment, optimized CXCL12 (AMD3100 concentration not given)) |
| --- | --- | --- | --- | --- | --- | --- | --- | --- | --- | --- | --- | --- |
| O=C(CO/N=C/c1ccccc1)N/N=C1\C(=O)N(CN(Cc2ccccc2)Cc2ccccc2)c2ccccc21 [Compound I-38, acetic acid, 2-[[(phenylmethylene)amino]oxy]-,2-[1-[[bis(phenylmethyl)amino]methyl]-1,2-dihydro-2-oxo-3H-indol-3-ylidene]hydrazide] | 7.93 | specifically inhibit CXCR4 mediated migration | 5 | did not induce any apparent toxicity | specifically inhibit CXCR4 mediated migration | does not significantly inhibit intracellular calcium mobilization; also recorded: little reduction of intracellular calcium mobilization | more effective than AMD3100 | more than 60% | reduced mice TC-1 metastatic tumor incidence and burden in lungs | 0.23 | – | – |
| O=C(Nc1ccc2ccc3ccc(NC(=O)c4ccccc4)nc3c2n1)c1ccccc1 [Compound I-46, N,N′-1,10-phenanthroline-2,9-diylbis-benzamide] | – | inhibit migration to both chemokines | – | – | inhibit migration to both chemokines | – | – | – | – | – | 0.017 | 0.067 |
